Experiments:
human TLR9 = target: T1, human TLR9 (Homo sapiens, UniProt Q9NR96); assay: TLR9 inhibition reporter assay (HEK-Blue cells, SEAP reporter, ODN2006 stimulation); type: cell-based; conditions: HEK-Blue cells overexpressing human TLR9, ODN2006 5 nM
T1 construct: host or cells: HEK-Blue cells
T1 sequence (Q9NR96 26-1032): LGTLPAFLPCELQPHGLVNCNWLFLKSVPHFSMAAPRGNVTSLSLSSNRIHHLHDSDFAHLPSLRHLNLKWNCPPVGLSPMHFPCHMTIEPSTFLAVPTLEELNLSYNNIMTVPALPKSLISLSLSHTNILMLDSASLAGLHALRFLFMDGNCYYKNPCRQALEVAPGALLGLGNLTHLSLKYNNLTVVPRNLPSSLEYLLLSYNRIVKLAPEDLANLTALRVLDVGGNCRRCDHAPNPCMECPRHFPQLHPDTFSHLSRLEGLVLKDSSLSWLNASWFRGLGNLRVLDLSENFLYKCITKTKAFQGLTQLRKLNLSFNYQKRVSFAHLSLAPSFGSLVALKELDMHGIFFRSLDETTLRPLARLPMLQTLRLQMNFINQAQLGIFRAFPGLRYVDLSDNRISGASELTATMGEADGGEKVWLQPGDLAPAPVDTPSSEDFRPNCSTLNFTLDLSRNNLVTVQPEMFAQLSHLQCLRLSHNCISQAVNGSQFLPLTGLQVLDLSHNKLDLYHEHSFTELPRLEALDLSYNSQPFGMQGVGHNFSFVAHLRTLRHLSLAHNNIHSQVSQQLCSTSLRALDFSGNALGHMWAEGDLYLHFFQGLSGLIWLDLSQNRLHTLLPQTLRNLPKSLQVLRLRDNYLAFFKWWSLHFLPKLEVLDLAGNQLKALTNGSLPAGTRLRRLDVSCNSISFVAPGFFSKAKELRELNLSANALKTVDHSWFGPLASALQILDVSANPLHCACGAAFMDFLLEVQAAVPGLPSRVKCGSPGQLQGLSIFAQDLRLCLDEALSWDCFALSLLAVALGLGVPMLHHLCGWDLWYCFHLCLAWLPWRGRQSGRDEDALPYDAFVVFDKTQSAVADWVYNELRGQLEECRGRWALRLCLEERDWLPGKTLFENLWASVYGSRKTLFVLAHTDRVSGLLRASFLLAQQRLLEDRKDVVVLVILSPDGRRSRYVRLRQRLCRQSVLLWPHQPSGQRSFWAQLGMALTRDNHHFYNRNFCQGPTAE
Outline: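 HEK-Blue cells overexpressing human TLR7, TLR8 or TLR9 carry a SEAP reporter driven by NF-κB/AP-1 sites. Compounds (0.05 nM–50 μM) were preincubated 30 min at room temperature, then cells were stimulated with gardiquimod 7.5 μM (TLR7), R848 15.9 μM (TLR8) or ODN2006 5 nM (TLR9) for 22 h at 37 °C.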

human TLR7 = target: T2, human TLR7 (Homo sapiens, UniProt Q9NYK1); assay: TLR7 inhibition reporter assay (HEK-Blue cells, SEAP reporter, gardiquimod stimulation); type: cell-based; conditions: HEK-Blue cells overexpressing human TLR7, gardiquimod 7.5 μM
T2 construct: host or cells: HEK-Blue cells
T2 sequence (Q9NYK1 27-1049): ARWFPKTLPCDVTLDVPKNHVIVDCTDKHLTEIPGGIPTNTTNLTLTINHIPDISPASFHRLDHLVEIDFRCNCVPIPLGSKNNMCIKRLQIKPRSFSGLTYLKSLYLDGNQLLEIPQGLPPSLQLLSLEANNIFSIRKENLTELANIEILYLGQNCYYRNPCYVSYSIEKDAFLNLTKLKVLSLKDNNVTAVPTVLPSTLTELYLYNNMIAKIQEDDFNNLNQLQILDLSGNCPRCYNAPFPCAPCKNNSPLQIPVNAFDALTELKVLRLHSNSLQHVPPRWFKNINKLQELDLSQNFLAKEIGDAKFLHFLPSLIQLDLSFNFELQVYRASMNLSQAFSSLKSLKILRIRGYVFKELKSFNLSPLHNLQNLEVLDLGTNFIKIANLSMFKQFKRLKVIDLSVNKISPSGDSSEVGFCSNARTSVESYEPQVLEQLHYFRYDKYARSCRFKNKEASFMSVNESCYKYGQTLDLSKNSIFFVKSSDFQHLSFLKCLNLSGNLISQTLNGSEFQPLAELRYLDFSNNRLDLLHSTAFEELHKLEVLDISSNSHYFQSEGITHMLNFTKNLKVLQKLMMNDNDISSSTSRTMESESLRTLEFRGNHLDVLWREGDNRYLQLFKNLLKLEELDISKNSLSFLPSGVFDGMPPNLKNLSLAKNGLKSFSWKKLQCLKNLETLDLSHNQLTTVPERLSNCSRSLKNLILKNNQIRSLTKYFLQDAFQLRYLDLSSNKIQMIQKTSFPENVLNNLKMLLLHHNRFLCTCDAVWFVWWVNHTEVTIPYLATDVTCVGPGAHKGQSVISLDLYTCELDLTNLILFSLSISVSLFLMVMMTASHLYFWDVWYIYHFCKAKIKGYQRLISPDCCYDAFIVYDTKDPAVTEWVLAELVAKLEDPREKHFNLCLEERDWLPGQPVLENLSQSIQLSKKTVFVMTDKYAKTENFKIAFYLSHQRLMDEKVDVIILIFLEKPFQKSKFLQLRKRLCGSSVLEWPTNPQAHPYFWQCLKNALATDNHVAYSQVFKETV
Outline: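 SEAP readout via HEK-Blue Detection medium after 22 h at 37 °C, 5% CO2 defines inhibition, normalized between agonist-plus-DMSO wells and a reference inhibitor. Compound dose range 0.05 nM–50 μM; TLR7 cells at 15,000/well (gardiquimod), TLR8 at 20,000/well (R848).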

| SMILES | IC50 (human TLR9) | IC50 (human TLR7) |
| --- | --- | --- |
| COc1ccc(-c2[nH]c3ccc(C4CCN(Cc5cnc(C)[nH]5)CC4)cc3c2C)cc1OC [Example 4, 2-(3,4-dimethoxyphenyl)-3-methyl-5-(1-((2-methyl-1H-imidazol-5-yl)methyl)piperidin-4-yl)-1H-indole] | 190 nM | 3770 nM |
| COc1ccc(-c2[nH]c3ccc(C4CCN(Cc5ccc6cnccc6c5)CC4)cc3c2C)cc1OC [Example 31, 6-((4-(2-(3,4-dimethoxyphenyl)-3-methyl-1H-indol-5-yl)piperidin-1-yl)methyl)isoquinoline] | 225 nM | 347 nM |
| COc1ccc(-c2[nH]c3ccc(C4CCN(C5CCN(C(C)=O)CC5)CC4)cc3c2C)cc1OC [Example 12, 1-(4-(2-(3,4-dimethoxyphenyl)-3-methyl-1H-indol-5-yl)-[1,4′-bipiperidin]-1′-yl)ethan-1-one] | 649 nM | 1340 nM |

Now from value to molecule:

| IC50 (human TLR9) | IC50 (human TLR7) | SMILES |
| --- | --- | --- |
| 3230 nM | 445 nM | COc1ccc(-c2[nH]c3ccc(C4CCN(C(=O)CN5CCCCC5C[C@@H]5CCCN5C)CC4)cc3c2C(C)C)cc1OC (stereo partly drawn) [Example 225, 1-(4-(2-(3,4-dimethoxyphenyl)-3-isopropyl-1H-indol-5-yl)piperidin-1-yl)-2-(2-(((S)-1-methylpyrrolidin-2-yl)methyl)piperidin-1-yl)ethan-1-one] |
| 116 nM | 188 nM | COc1ccc(-c2[nH]c3ccc(C4CCN(C5CCN(CCCSC)CC5)CC4)cc3c2C)cc1OC [Example 53, 2-(3,4-dimethoxyphenyl)-3-methyl-5-(1′-(3-(methylthio)propyl)-[1,4′-bipiperidin]-4-yl)-1H-indole] |
| 385 nM | 144 nM | COc1ccc(-c2[nH]c3ccc(C4CCN(C5CCCC(N)C5)CC4)cc3c2C)cc1OC (stereo not shown) [Example 105, 3-(4-(2-(3,4-dimethoxyphenyl)-3-methyl-1H-indol-5-yl)piperidin-1-yl)cyclohexan-1-amine] |
| 861 nM | 3540 nM | COc1ccc(-c2[nH]c3ccc(C4CCN(C[C@H]5CCCN5)CC4)cc3c2C)cc1OC [Example 108, (R)-2-(3,4-dimethoxyphenyl)-3-methyl-5-(1-(pyrrolidin-2-ylmethyl)piperidin-4-yl)-1H-indole] |
| 382 nM | 559 nM | CNCCCN1CCC(c2ccc3[nH]c(-c4ccc(OC)c(OC)c4)c(C)c3c2)CC1 [Example 102, 3-(4-(2-(3,4-dimethoxyphenyl)-3-methyl-1H-indol-5-yl)piperidin-1-yl)-N-methylpropan-1-amine] |
